Test results taken from patent US20140154735A1, “TUMOUR CELL AND TISSUE CULTURE” (CAPSANT NEUROTECHNOLOGIES LTD., priority 2011, published 2014).
pIC50: −log10 of the molar value.

What was measured:
LN18-eGFP clusters = experiment: 5-ALA staining of GBM(LN18-eGFP)/brain co-cultures; assay type: cell-based, human; details: 100 μg/ml, 24 hours
Text: 5-aminolevulinic acid (5-ALA) can be used to visualize tumourous tissue during neurosurgical procedures. The intraoperative use of this guiding method may reduce the tumour residual volume and prolong progression-free survival in patients suffering from brain tumours. GBM(LN18-eGFP)/brain co-cultures as prepared in Example 4 were stained with 5-ALA to see whether, as in human tumours, 5-ALA could specifically stain the tumour cells.
Aminolevulinic acid hydrochloride (ALA) (Sigma product number A3785) was solubilised in water to 10 mg/ml. For incubation with the cultures, it was diluted in the medium in the well to give a final concentration of 100 μg/ml and incubated with the cultures for 24 hours. The cultures were then examined microscopically using the CARV confocal system described for immunohistological analysis.

LN-18 cells [1] = experiment: 3D organotypic co-culture of LN-18-GFP tumour cells in rat brain cell matrix, treated at seeding; assay type: cell-based, human
Experimental: (§1) Human glioblastoma tumour cell lines, LN-18 (ATCC #CRL2610) were cultured and were transfected with either green fluorescent protein (GFP) expressing plasmids or red fluorescent protein (RFP) expressing plasmids. Cells were cultured and plated onto 6 well plates, at 1×10^5 cells per well, grown overnight and checked to see ˜75% confluence. The cells were transfected with pEGFP-N3 (BD Biosciences cat no #6080-1) using Gene Juice (Novagen cat no #70967-EA) as per manufacturer's protocols. 24 hours after transfection, the cells were selected with Geneticin (GIBCO cat no #10131-019), a population of selected cells were used in the experiments. A population of selected cells were cultured over prolonged periods of time with occasional selection to maintain a population of transfected cells. The expression of fluorescent proteins by the tumour cells allows monitoring of the tumour cells for proliferation and morphological changes. The transfected tumour cells (LN-18) were treated with trypsin/EDTA (sigma#T4299) to remove them from the flask, resuspended in culture media, The viable cells were counted using trypan blue exclusion The suspension was centrifuged at 1000 rpm/3 minutes and the resultant cell pellet resuspended to 50,000 cells/μl.
The organotypic cultures were produced by preparing dissociated cells from isolated rat cortex. P0 Wistar rats were sacrificed and the brains removed. The cortices were dissected into a Petri dish and chopped into small pieces and put into cold EBSS (GIBCO cat no #24010). The tissue pieces were then triturated very gently. The resultant cell suspension was filtered through a 100 μm mesh filter fitting into a 50 ml falcon tube. The suspension was centrifuged at 1000 rpm/3 minutes. The viable cells were counted using Trypan blue exclusion and the cell pellet resuspended to 50,000 cells/μl.
The transfected tumour cells and the rat primary cells prepared as explained in Examples 1 and 2 were mixed together to form a suspension of cells at 50,000 cells/μl.
5 μL of this mixed cell suspension was added to the top of a 0.4 micron Millipore culture insert (Millipore cat no # PICM0350) placed in lml cortical media (10% Hams F12, 20% FCS, 5% horse serum, 10 mM Hepes, 2 mM glutamine in DMEM) in a 6 well plate (NUNC). The plate was then incubated at 37° C. with 5% CO2 (FIG. 1A). During the first hours of this incubation the cells compact to form a denser culture by the removal of the liquid from the 5 μl cell suspension through capillary action via the semi-permeable membrane support (FIG. 1A).
Using these optimisation experiments the cells were mixed in the proportions of 95% rat brain cells and 5% LN-18 tumour cells both resuspended at 50,000 cells per μl.
(§2) Organotypic co-cultures were prepared as previously described. 2 hours after preparation, TMZ was added into the culture medium at various concentrations—see FIG. 6. The cultures are incubated in the culture medium+TMZ for up to 14 days with the compound being renewed as the media was changed. This allowed for monitoring of the effect of the TMZ over time.
(§3) For the monolayer cultures of tumour cells alone (2D) LN-18_GFP cells were plated into 24 well plates at a concentration of 10^4 cells per well and after 2 hours treated with the same concentrations of TMZ as the organotypic co-cultures. Control organotypic co-cultures and 2D cultures were also monitored to compare normal growth of the tumour cells with that after addition of the TMZ. For analysis of fluorescence, images were taken on a Leica DM1L microscope using Leica application suite software. The images collected were analyzed using the BD IPLAB imaging software and the data analysed using Graphpad Prism5 software. The error bars are the standard error of the mean (SEM). 24 images were used for each data point.

LN-18 cells [2] = experiment: 2D monolayer culture of LN-18-GFP tumour cells alone, fluorescence growth readout; assay type: cell-based, human; details: for pIC50: Homo sapiens, LN-18, 2D culture, growth inhibition
Experimental: as §1, §3

U87 [3] = experiment: 2D culture of U87 glioblastoma cells, growth inhibition; assay type: cell-based; details: Homo sapiens, U-87 MG; U87, 2D culture; read-out: IC50 TMZ 2D
U87 [4] = experiment: 3D co-culture of U87 glioblastoma cells with brain cell matrix, growth inhibition; assay type: cell-based; details: Homo sapiens, U-87 MG, U87, 3D co-culture with brain cell matrix
Experimental: (§4) Each of these cell lines was eGFP-labeled and mixed with rat brain cells to form 3D organotypic co-cultures. As indicated by the eGFP signal, all brain-derived tumour cell lines grew and formed clusters of tumour cells within the co-cultures (FIGS. 3B, C and D) in a very similar way as LN18 cells.
as §2
(§5) Similarly to what has been observed with LN-18 cells, efficacy of Temozolomide was increased from 2.5 to 12 fold in brain-co-cultures. Thus, the co-cultures of the invention reflect the clinical situation more closely than 2D cultures for various glioblastoma cell lines.

GL-15 [5] = experiment: 2D culture of GL-15 glioblastoma cells, growth inhibition; assay type: cell-based; details: GL-15, 2D culture
Experimental: as §3, §5

A172 [6] = experiment: 2D culture of A172 glioblastoma cells, growth inhibition; assay type: cell-based; details: Homo sapiens, A172, 2D culture
Experimental: as §3, §5

A172 [7] = experiment: 3D co-culture of A172 glioblastoma cells with brain cell matrix, growth inhibition; assay type: cell-based; details: Homo sapiens, A172, 3D co-culture with brain cell matrix
Experimental: as §4, §2, §5

GL-15 [8] = experiment: 3D co-culture of GL-15 glioblastoma cells with brain cell matrix, growth inhibition; assay type: cell-based; details: GL-15, 3D co-culture with brain cell matrix
Experimental: as §4, §2, §5

[9] = tested on: established glioblastoma tumour cell clusters in GBM/brain co-cultures; experiment: Tumour regression in established GBM/brain co-cultures, treatment started three days after seeding; assay type: cell-based
Text: Chemotherapies are given to patients with established tumours and are poorly effective.
Thus, also in terms of tumour regression, the properties of the co-cultures of the invention are representative of the clinical situation.

## NCC(=O)CCC(=O)O [5-ALA, 5-aminolevulinic acid]
LN18-eGFP clusters; clusters of more than about 100 μm in diameter
  staining of tumour cell clusters: strong specific 5-ALA staining
LN18-eGFP clusters; clusters smaller than about 100 μm in diameter
  staining of tumour cell clusters: stained more weakly

## Nc1ccn([C@@H]2O[C@H](CO)[C@@H](O)[C@@H]2O)c(=O)n1 [Ara-C, Cytosine arabinoside]
LN-18 cells [1]; 3D versus 2D
  dose needed in 3D co-cultures relative to dose necessary in 2D cultures: ten times
LN-18 cells [1]; GBM/Brain co-cultures (3D)
  concentration required to reduce tumour cell proliferation: 1 µM
LN-18 cells [1]; GBM/Brain co-cultures (3D), 10 μM
  effect on GBM cells: effectively killed
LN-18 cells [2]; 2D cultures
  concentration showing growth inhibition (anti-proliferative activity): 100 nM

## Cn1nnc2c(C(N)=O)ncn2c1=O [TMZ, Temozolomide]
U87 [3]
  pIC50: ~4.92
U87 [4]; read-out: IC50 TMZ 3D
  pIC50: ~6.00
GL-15 [5]; read-out: IC50 TMZ 2D
  pIC50: < 4.30
A172 [6]; A 172, read-out: IC50 TMZ 2D
  pIC50: ~4.60
LN-18 cells [1]; Homo sapiens, LN-18, LN-18, 3D co-culture with rat brain cells, growth inhibition, read-out: IC50 TMZ 3D
  pIC50: > 5.30
LN-18 cells [1]; LN-18, 3D co-culture with rat brain cells, growth inhibition, read-out: IC50 TMZ 3D
  pIC50: ~5.40
A172 [7]; A 172, read-out: IC50 TMZ 3D
  pIC50: ~5.30
LN-18 cells [2]; read-out: IC50 TMZ 2D
  pIC50: < 5.00
GL-15 [8]; read-out: IC50 TMZ 3D
  pIC50: ~4.70

## CC(=O)O[C@H]1C(=O)[C@@]2(C)[C@H]([C@H](OC(=O)c3ccccc3)[C@]3(O)C[C@H](OC(=O)[C@H](O)[C@@H](NC(=O)c4ccccc4)c4ccccc4)C(C)=C1C3(C)C)[C@]1(OC(C)=O)CO[C@@H]1C[C@@H]2O [Taxol, Paclitaxel]
U87 [4]; read-out: IC50 Taxol 3D
  pIC50: ~7.22
GL-15 [5]; read-out: IC50 Taxol 2D
  pIC50: ~8.40
A172 [6]; A 172, read-out: IC50 Taxol 2D
  pIC50: ~8.15
[9]; taxol 25 nM
  effect on fluorescence intensity of established tumour cell clusters: no effect
[9]; taxol 100 nM and 50 nM
  effect on fluorescence intensity of established tumour cell clusters: marginal effects
LN-18 cells [1]; 3D, taxol 25 nM, treatment started at seeding
  effect on tumour cell growth: cell growth was stopped
LN-18 cells [1]; 3D, taxol 25, 50 and 100 nM
  effect on cell growth versus control cultures (average % fluorescence): significant reduction in cell growth
LN-18 cells [1]; 3D, treatment started at seeding
  concentration required to achieve tumour clusters shrinkage: 100 nM
LN-18 cells [1]; Homo sapiens, LN-18, read-out: IC50 Taxol 3D, LN-18, 3D co-culture with rat brain cells, growth inhibition
  pIC50: ~7.60
A172 [7]; A 172, read-out: IC50 Taxol 3D
  pIC50: ~7.30
LN-18 cells [2]; 2D, Taxol 20 nM
  effect on tumour cell number: reduction in cell number to almost zero
LN-18 cells [2]; 2D, taxol 5 nM
  effect on tumour cell number (average % fluorescence): small but significant reduction in cell number
LN-18 cells [2]; 2D, taxol 20 and 50 nM
  effect on tumour cell number (average % fluorescence): no increase in cell number
LN-18 cells [2]; read-out: IC50 Taxol 2D
  pIC50: ~8.15
GL-15 [8]; read-out: IC50 Taxol 3D
  pIC50: 7.00
